These results are taken from patent US8367671B2, “Pyrazolo[3.4-B]pyrazine compounds as p38 modulators and methods of use as anti-inflamatory agents” (Amgen Inc., priority 2008, dated 2013).

One assay has as its target human p38α (Homo sapiens, UniProt Q16539). The experiment in a line: Purified and activated recombinant human p38α HTRF kinase assay. It is filed as biochemical. As to conditions: 1 nM p38α, 50 μM ATP, 100 nM GST-ATF2-Avitag, 1 hour at RT; read-out: p38a IC50. The procedure: Purified and Activated Recombinant Human p38α Aassay
Kinase Reaction Buffer: Kinase reaction buffer for p38α HTRF assays consists of 50 mM Tris-pH 7.5, 5 mM MgCl2, 0.1 mg/mL BSA, 100 μM Na3VO4 and 0.5 mM DTT.
HTRF Detection Buffer: HTRF detection buffer contains 100 mM HEPES-pH 7.5, 100 mM NaCl, 0.1% BSA, 0.05% Tween-20, and 10 mM EDTA.
Serial Dilution of Compounds: Compounds were dissolved in 100% DMSO and serially diluted (3 fold, 10 point) in a polypropylene 96-well microtiter plate (drug plate). The final starting concentration of compounds in the p38a enzymatic assays was 1 μM. Columns 6 and 12 (HI controls and LO controls respectively) in the drug plate were reserved as controls and contained only DMSO. Kinase Reaction: The p38α kinase reactions were carried out in a polypropylene 96-well black round bottom assay plate in total volume of 30 μL kinase reaction buffer. Appropriate concentration of purified and activated enzyme (recombinant human) was mixed with indicated concentration of ATP and 100 nM GST-ATF2-Avitag, in the presence or absence (HI control) of Compound. See table below for actual concentrations. In the absence of substrate, the background was measured as LO control. The reaction was allowed to incubate for 1 hour at RT. Assay Reagent Concentrations: The final reagent concentrations were 1 nM p38α and 50 μM ATP. The Km for ATP of the enzyme was 103 μM, giving a ratio of ATP concentration to Km of 0.49. […] After 60 minutes incubation at room temperature, the assay plate was read in a Discovery Plate Reader. The wells were excited with coherent 320 nm light and the ratio of delayed ([…] post excitation) emissions at […] (native europium fluorescence) and 665 nm (europium fluorescence transferred to allophycocyanin—an index of substrate phosphorylation) was determined (Park et al, 1999). Data Analysis: The proportion of substrate phosphorylated in the kinase reaction in the presence of compound compared with that phosphorylated in the presence of DMSO vehicle alone (HI control) was calculated using the formula: % control (POC)=(compound−average LO)/(average HI−average LO)*100. Data (consisting of POC and inhibitor concentration in μM) was fitted to a 4-parameter equation (y=A+((B−A)/(1+((x/C)^D))), where A is the minimum y (POC) value, B is the maximum y (POC), C is the x (compound concentration) at the point of inflection and D is the slope factor, using a Levenburg-Marquardt non-linear regression algorithm.
The inhibition constant (Ki) of the inhibitor was estimated from the IC50 (compound concentration at the point of inflection C) using the Cheng-Prussof equation: Ki=IC50/(1+S/Km), where S is the ATP substrate concentration, and Km is the Michaelis constant for ATP as determined experimentally. All results were expressed as the mean±the standard error of the mean. Data acquisition and non-linear regression algorithms were performed using Activity Base v5.2 and XL-fit software v4.1 respectively. All data was archived using Activity Base v5.2 software.
In general terms: Time-resolved FRET reads energy transfer from a long-lived donor to a nearby acceptor.

The test system of assay [1] is TNF-α induced IL-8 in 50% human whole blood. The experiment in a line: Inhibition of TNF-α induced IL-8 in 50% human whole blood. It is filed as cell-based. As to conditions: 50% human whole blood activated with 1 nM TNF-α, secreted IL-8, 16-18 hours; read-out: WB TNF/IL8 IC50. The procedure:
Inhibition of TNF-α Induced IL-8 in 50% Human Whole Blood
Test compounds were evaluated in vitro for the ability to inhibit the production of secreted IL-8 by whole blood activated with TNF-α. Fresh human whole blood was obtained from healthy, non-medicated volunteers in sodium heparin tubes.
Compound Dilution—Assay Procedure
Test compounds are serially diluted 1:3 in DMSO and then diluted 1:250 into R10 (RPMI 1640, 10% human serum AB, 1× pen/strep/glutamine) to the 4× working concentration to be used in the assay. 100 ul heparinized whole blood is plated into wells of 96 well flat bottom plates. 50 ul of either 4× compound or DMSO control (Final DMSO concentration is 0.1%) are added to the appropriate wells. Plates are incubated for 1 hour at 37 degrees Celsius. 50 ul of 4× TNF-α (4 nM TNF-α, for a final concentration of 1 nM) or control (media alone) is added to the appropriate wells (Total volume=200 ul). Plates are incubated overnight (16-18 hours). 100 ul of supernatant is collected and stored in 96-well round bottom polypropylene plates at −80 degrees Celsius or assayed immediately for IL-8.
Cytokines are measured on antibody (Ab) sandwich ECL based 96-well detection plates. 20 ul of supernatant are added to plate and plate is sealed and shaken at RT for 1 hour. 130 ul of detection Ab cocktail is added and plates are sealed and shaken for 1 hour in the dark at RT. Plates are read on MSD Sector HTS instrument. Data are analyzed and IC50 values generated using Activity Base and Xl-fit programs.

human p38α, sequence (Q16539 whole entry): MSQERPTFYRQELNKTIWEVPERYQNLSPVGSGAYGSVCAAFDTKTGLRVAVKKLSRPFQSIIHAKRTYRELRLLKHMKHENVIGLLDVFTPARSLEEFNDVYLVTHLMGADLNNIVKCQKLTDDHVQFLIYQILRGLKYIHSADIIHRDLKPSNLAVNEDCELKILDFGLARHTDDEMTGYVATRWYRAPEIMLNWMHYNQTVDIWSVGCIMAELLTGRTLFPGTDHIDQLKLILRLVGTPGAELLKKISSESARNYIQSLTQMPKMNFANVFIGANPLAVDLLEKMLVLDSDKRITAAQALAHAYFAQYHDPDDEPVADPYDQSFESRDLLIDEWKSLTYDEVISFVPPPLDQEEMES

With `CCn1c(=O)c(-c2cc(C(=O)NC3CC3)ccc2C)nc2cnn(-c3c(F)cccc3F)c21` [Example 5, N-cyclopropyl-3-(1-(2,6-difluorophenyl)-7-ethyl-6-oxo-6,7-dihydro-1H-pyrazolo[3,4-b]pyrazin-5-yl)-4-methylbenzamide], the IC50 on human p38α is 1.4 nM; in assay [1] it was 5.8 nM.
Regarding `Cc1ccc(C(=O)NC2CC2)cc1-c1nc2cnn(-c3c(F)cccc3F)c2n(C)c1=O` [Example 3, N-cyclopropyl-3-(1-(2,6-difluorophenyl)-7-methyl-6-oxo-6,7-dihydro-1H-pyrazolo[3,4-b]pyrazin-5-yl)-4-methylbenzamide], the figures for the IC50 (at human p38α; in assay [1]) were 3.3 nM and 7.3 nM, respectively.
For `CCn1c(=O)c(-c2cc(C(=O)Nc3ccon3)ccc2C)nc2cnn(-c3c(F)cccc3F)c21` [Example 13, 3-(1-(2,6-difluorophenyl)-7-ethyl-6-oxo-6,7-dihydro-1H-pyrazolo[3,4-b]pyrazin-5-yl)-N-3-isoxazolyl-4-methylbenzamide], the IC50 on human p38α was determined as 0.7 nM; in assay [1], 1.2 nM.
With `Cc1ccc(C(=O)Nc2ccon2)cc1-c1nc2cnn(-c3c(F)cccc3F)c2n(C)c1=O` [Example 10, 3-(1-(2,6-difluorophenyl)-7-methyl-6-oxo-6,7-dihydro-1H-pyrazolo[3,4-b]pyrazin-5-yl)-N-3-isoxazolyl-4-methylbenzamide], the results for the IC50 (on human p38α; in assay [1]) were 10 nM and 3.7 nM, respectively.
Regarding `Cc1c(F)cc(C(=O)Nc2ccon2)cc1-c1nc2cnn(-c3ccc(F)cc3F)c2n(C)c1=O` [Example 8, 3-(1-(2,4-difluorophenyl)-7-methyl-6-oxo-6,7-dihydro-1H-pyrazolo[3,4-b]pyrazin-5-yl)-5-fluoro-N-3-isoxazolyl-4-methylbenzamide], the values for the IC50 (on human p38α; in assay [1]) were 4.6 nM and 13 nM, respectively.
Take `CCn1c(=O)c(-c2cc(C(N)=O)cc(F)c2C)nc2cnn(-c3c(F)cccc3F)c21` [Example 12, 3-(1-(2,6-difluorophenyl)-7-ethyl-6-oxo-6,7-dihydro-1H-pyrazolo[3,4-b]pyrazin-5-yl)-5-fluoro-4-methylbenzamide]: the IC50 amounted to 22 nM at human p38α and 23 nM in assay [1].
Regarding `Cc1c(F)cc(C(=O)NC2CC2)cc1-c1nc2cnn(-c3ccc(F)cc3F)c2n(C)c1=O` [Example 7, N-cyclopropyl-3-(1-(2,4-difluorophenyl)-7-methyl-6-oxo-6,7-dihydro-1H-pyrazolo[3,4-b]pyrazin-5-yl)-5-fluoro-4-methylbenzamide], the IC50 at human p38α came to 34 nM; in assay [1] it was 25 nM.
For `Cc1ccc(C(N)=O)cc1-c1nc2cnn(-c3c(F)cccc3F)c2n(C)c1=O` [Example 4, 3-(1-(2,6-difluorophenyl)-7-methyl-6-oxo-6,7-dihydro-1H-pyrazolo[3,4-b]pyrazin-5-yl)-4-methylbenzamide], in that order: 8.5 nM and 41 nM.
In the case of `CCn1c(=O)c(-c2cc(C(=O)Nc3ccon3)cc(F)c2C)nc2cnn(-c3ccc(F)cc3F)c21` [Example 2, 3-(1-(2,4-Difluorophenyl)-7-ethyl-6-oxo-6,7-dihydro-1H-pyrazolo[4,3-b]pyrazin-5-yl)-5-fluoro-N-(isoxazol-3-yl)-4-methylbenzamide], the IC50 worked out at 2.5 nM on human p38α and 6.1 nM in assay [1].
Consider `CCn1c(=O)c(-c2cc(C(=O)NC3CC3)cc(F)c2C)nc2cnn(-c3ccc(F)cc3F)c21` [Example 9, N-cyclopropyl-3-(1-(2,4-difluorophenyl)-7-ethyl-6-oxo-6,7-dihydro-1H-pyrazolo[3,4-b]pyrazin-5-yl)-5-fluoro-4-methylbenzamide], for which the IC50 on human p38α is 5 nM; in assay [1], 8.4 nM.
`Cc1c(F)cc(C(=O)NC2CC2)cc1-c1nc2cnn(-c3c(F)cccc3F)c2n(C)c1=O` [Example 1, N-Cyclopropyl-3-(1-(2,6-difluorophenyl)-7-methyl-6-oxo-6,7-dihydro-1H-pyrazolo[4,3-b]pyrazin-5-yl)-5-fluoro-4-methylbenzamide]: the IC50 stood at 1.8 nM on human p38α and 10.7 nM in assay [1].
As for `CCn1c(=O)c(-c2cc(C(=O)NC3CC3)cc(F)c2C)nc2cnn(-c3c(F)cccc3F)c21` [Example 11, N-cyclopropyl-3-(1-(2,6-difluorophenyl)-7-ethyl-6-oxo-6,7-dihydro-1H-pyrazolo[3,4-b]pyrazin-5-yl)-5-fluoro-4-methylbenzamide], the results for the IC50 (at human p38α; in assay [1]) were 2.3 nM and 3 nM, respectively.
`Cc1c(F)cc(C(=O)Nc2ccon2)cc1-c1nc2cnn(-c3c(F)cccc3F)c2n(C)c1=O` [Example 6, 3-(1-(2,6-difluorophenyl)-7-methyl-6-oxo-6,7-dihydro-1H-pyrazolo[3,4-b]pyrazin-5-yl)-5-fluoro-N-3-isoxazolyl-4-methylbenzamide]: the results for the IC50 (at human p38α; in assay [1]) were 1.2 nM and 3.2 nM, respectively.
